Test system: oligonucleotides containing a central CC mismatch
Assay: Photocleavage testing, denaturing PAGE of 5′-32P-end-labeled oligonucleotides
Type: biochemical
Settings: duplex 1 μM, Rh 1 μM, 20 mM NaCl, 10 mM NaPi, pH 7.1, 30 min, irradiation 5 min (325-450 nm); fully matched and mismatched oligonucleotides
Experimental: Compounds PEG-RhOG and [Rh(chrysi)(phen)(^PEGbipy)]^3+(i.e., compound A and intermediate 2, respectively, as described above) were used for photocleavage testing. Denaturing PAGE experiments with 5′-32P-end-labeled oligonucleotides containing or lacking a central CC mismatch were employed to test specific site targeting. Duplex DNA (1 μM) was incubated with variable concentrations of compound A (100 nm to 5 μM) for 30 min and then irradiated for 5 min.
Conditions were duplex (1 μM), Rh (1 μM) in 20 mM NaCl, 10 mM NaPi, pH 7.1 for 30 min at ambient temperature followed by irradiation for 5 min with a solar simulator (325-450 nm). Lanes 1, 2, 11, and 12 show Maxam-Gilbert sequencing reactions for matched (1, 2) and mismatched (11, 12) DNA. For matched and mismatched DNA, respectively, lanes 3 and 7 show fragments irradiated with no metal complex; lanes 4 and 8 show fragments with compound A but no irradiation; lanes 5, 6, 9, and 10 show fragments after irradiation in the presence of compound A (5, 9) and intermediate 2 (6, 10). The DNA sequence was 5′-32P-end-labeled-GCGCCGTCGTXCATGTG-3′ (SEQ ID NO:4) where X=C, G with a complement containing a matched or mismatched C at the bold site. The arrow marks the mismatched site.

[Rh(chrysi)(phen)(^PEGbipy)]^3+ [intermediate 2]
photocleavage on autoradiogram of denaturing 20% polyacrylamide gel: photocleavage

Source: patent US7786298B2, “Compounds and methods for nucleic acid mismatch detection” (California Institute of Technology, priority 2006, dated 2010)
